Source: ChEMBL document CHEMBL1201862, “PubChem BioAssay data set” (2004)
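Five compound concentrations were applied to cells in 96-well plates for 48 hours; endpoints were derived by simple linear interpolation of the resulting dose-response curve. Abbreviation: GI50, concentration required for 50% inhibition of growth.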 Activity calls are given as the source filed them. Cut-off read from the data, not from the text of the source: active = GI50 up to about 1.1 µM and inactive = higher.

Tests used:
Assay in all cases: inhibition of tumour cell growth, NCI panel, 48 h
TK-10 = system: TK-10
SW-620 = system: SW-620
HOP-62 = system: HOP-62
HCC 2998 = system: HCC 2998
U-251 = system: U-251
A498 = system: A498
HCT-116 = system: HCT-116
SK-MEL-5 = system: SK-MEL-5
OVCAR-5 = system: OVCAR-5
EKVX = system: EKVX
CCRF-CEM = system: CCRF-CEM
UACC-257 = system: UACC-257
SF-268 = system: SF-268
A549 = system: A549
SK-OV-3 = system: SK-OV-3
UO-31 = system: UO-31
SR = system: SR
SK-MEL-2 = system: SK-MEL-2
PC-3 = system: PC-3
Hs-578T = system: Hs-578T

SMILES	GI50 (TK-10)	GI50 (SW-620)	GI50 (HOP-62)	GI50 (HCC 2998)	GI50 (U-251)	GI50 (A498)	GI50 (HCT-116)	GI50 (SK-MEL-5)	GI50 (OVCAR-5)	GI50 (EKVX)	GI50 (CCRF-CEM)	GI50 (UACC-257)	GI50 (SF-268)	GI50 (A549)	GI50 (SK-OV-3)	GI50 (UO-31)	GI50 (SR)	GI50 (SK-MEL-2)	GI50 (PC-3)	GI50 (Hs-578T)
N#CC1=C(Cl)NC(Cl)=C(C#N)C1c1c(Cl)cccc1Cl	36.5 µM (inactive)	14 µM (inactive)	48.2 µM (inactive)	24.1 µM (inactive)	16.3 µM (inactive)	94.6 µM (inactive)	18.7 µM (inactive)	21.5 µM (inactive)	> 100 µM (inactive)	49.8 µM (inactive)	24.4 µM (inactive)	22.1 µM (inactive)	30.4 µM (inactive)	29.1 µM (inactive)	29.7 µM (inactive)	49.4 µM (inactive)	40.7 µM (inactive)	58.3 µM (inactive)	–	–
C[C@@H]1OC(=O)C[C@H]2CC(=O)N(CCC3CN(S(=O)(=O)C(F)(F)F)c4ccc(Cc5ccc6c(c5)C(CCN5C[C@H]7[C@@H](CC(=O)O[C@H]7C)CC5=O)CN6S(=O)(=O)C(F)(F)F)cc43)C[C@@H]21 (stereo not given in full)	> 100 µM (inactive)	> 100 µM (inactive)	> 100 µM (inactive)	> 100 µM (inactive)	> 100 µM (inactive)	> 100 µM (inactive)	> 100 µM (inactive)	> 100 µM (inactive)	> 100 µM (inactive)	> 100 µM (inactive)	> 100 µM (inactive)	> 100 µM (inactive)	> 100 µM (inactive)	> 100 µM (inactive)	> 100 µM (inactive)	> 100 µM (inactive)	–	> 100 µM (inactive)	> 100 µM (inactive)	–
Cc1c(NC(=S)NC(=O)c2ccc([N+](=O)[O-])cc2)c(=O)n(-c2ccccc2)n1C	> 100 µM (inactive)	> 100 µM (inactive)	> 100 µM (inactive)	> 100 µM (inactive)	> 100 µM (inactive)	> 100 µM (inactive)	> 100 µM (inactive)	> 100 µM (inactive)	> 100 µM (inactive)	> 100 µM (inactive)	> 100 µM (inactive)	> 100 µM (inactive)	> 100 µM (inactive)	> 100 µM (inactive)	> 100 µM (inactive)	> 100 µM (inactive)	> 100 µM (inactive)	> 100 µM (inactive)	–	–
COC(=O)/C=C(\C)C(=O)N(C)c1ccccc1I	–	> 100 µM (inactive)	> 100 µM (inactive)	> 100 µM (inactive)	> 100 µM (inactive)	> 100 µM (inactive)	> 100 µM (inactive)	> 100 µM (inactive)	> 100 µM (inactive)	> 100 µM (inactive)	> 100 µM (inactive)	> 100 µM (inactive)	> 100 µM (inactive)	> 100 µM (inactive)	> 100 µM (inactive)	> 100 µM (inactive)	94 µM (inactive)	> 100 µM (inactive)	> 100 µM (inactive)	–
COc1ccc(N2C(=O)/C(=C\c3cc(OC)c(OC)c(OC)c3)S(=O)(=O)C2c2ccccc2)cc1 (stereo not given)	> 100 µM (inactive)	48.6 µM (inactive)	48.8 µM (inactive)	89.3 µM (inactive)	11.3 µM (inactive)	> 100 µM (inactive)	18.8 µM (inactive)	14.2 µM (inactive)	–	–	39.2 µM (inactive)	52.7 µM (inactive)	52 µM (inactive)	26.2 µM (inactive)	37.5 µM (inactive)	14.8 µM (inactive)	11 µM (inactive)	8.55 µM (inactive)	–	58.3 µM (inactive)
N#Cc1cc(-c2nc3cc(F)ccc3s2)ccc1N	0.034 µM (active)	> 100 µM (inactive)	15.3 µM (inactive)	< 0.01 µM (active)	12.4 µM (inactive)	3.39 µM (inactive)	9.51 µM (inactive)	–	0.0702 µM (active)	0.253 µM (active)	> 100 µM (inactive)	> 100 µM (inactive)	18.1 µM (inactive)	1.84 µM (inactive)	20.7 µM (inactive)	42 µM (inactive)	–	29.3 µM (inactive)	24.7 µM (inactive)	15.8 µM (inactive)
CC(C)(C)c1cc(/C=C/C(=O)CC(=O)/C=C/c2cc(C(C)(C)C)c(O)c(C(C)(C)C)c2)cc(C(C)(C)C)c1O	> 50 µM (inactive)	> 50 µM (inactive)	> 50 µM (inactive)	–	> 50 µM (inactive)	–	> 50 µM (inactive)	> 50 µM (inactive)	> 50 µM (inactive)	> 50 µM (inactive)	> 50 µM (inactive)	> 50 µM (inactive)	> 50 µM (inactive)	> 50 µM (inactive)	> 50 µM (inactive)	> 50 µM (inactive)	–	> 50 µM (inactive)	> 50 µM (inactive)	> 50 µM (inactive)
O=c1c2ccccc2[nH]c2c(Cl)cc(Cl)c(N3CCCCC3)c12	39.7 µM (inactive)	35.4 µM (inactive)	34 µM (inactive)	31.9 µM (inactive)	24.4 µM (inactive)	28.3 µM (inactive)	46.3 µM (inactive)	34.3 µM (inactive)	34.5 µM (inactive)	28.9 µM (inactive)	> 10 µM (inactive)	39.1 µM (inactive)	–	33.2 µM (inactive)	62.4 µM (inactive)	20 µM (inactive)	36.5 µM (inactive)	21.7 µM (inactive)	35.5 µM (inactive)	–
NC(=O)Nc1c(Cl)cc(S(N)(=O)=O)cc1Cl	> 100 µM (inactive)	> 100 µM (inactive)	> 100 µM (inactive)	–	> 100 µM (inactive)	–	> 100 µM (inactive)	> 100 µM (inactive)	> 100 µM (inactive)	> 100 µM (inactive)	> 100 µM (inactive)	> 100 µM (inactive)	> 100 µM (inactive)	> 100 µM (inactive)	> 100 µM (inactive)	> 100 µM (inactive)	–	> 100 µM (inactive)	–	> 100 µM (inactive)
Cc1cc(NC(=O)NC(=O)c2ccccc2[N+](=O)[O-])ccc1Oc1ncc(Cl)cn1	19.8 µM (inactive)	0.0501 µM (active)	0.0581 µM (active)	0.146 µM (active)	0.0916 µM (active)	0.0604 µM (active)	0.082 µM (active)	0.0362 µM (active)	16.5 µM (inactive)	–	0.0552 µM (active)	0.0431 µM (active)	1.9 µM (inactive)	0.125 µM (active)	0.0575 µM (active)	0.0889 µM (active)	–	–	0.0336 µM (active)	0.0257 µM (active)
c1ccc2c(c1)CC1COc3ccccc3C1O2 (stereo not given)	95.5 µM (inactive)	46.8 µM (inactive)	56.6 µM (inactive)	42.3 µM (inactive)	54.3 µM (inactive)	> 100 µM (inactive)	45.8 µM (inactive)	17.4 µM (inactive)	> 100 µM (inactive)	48.3 µM (inactive)	73.6 µM (inactive)	38.8 µM (inactive)	> 100 µM (inactive)	50.1 µM (inactive)	> 100 µM (inactive)	51.1 µM (inactive)	88.1 µM (inactive)	44.6 µM (inactive)	70.6 µM (inactive)	–
N#CC(=S)Nc1ccc(Cl)c(Cl)c1	26.5 µM (inactive)	27 µM (inactive)	44 µM (inactive)	18.7 µM (inactive)	23.2 µM (inactive)	32.7 µM (inactive)	28.8 µM (inactive)	22.2 µM (inactive)	16.4 µM (inactive)	22.9 µM (inactive)	10 µM (inactive)	28.2 µM (inactive)	37.4 µM (inactive)	24 µM (inactive)	20 µM (inactive)	–	21.7 µM (inactive)	27.7 µM (inactive)	23.9 µM (inactive)	–
C[C@]12CCc3nonc3C1CC[C@@H]1C2CC[C@]2(C)C(=O)/C(=N\O)CC12 (stereo not given in full)	> 100 µM (inactive)	> 100 µM (inactive)	> 100 µM (inactive)	> 100 µM (inactive)	> 100 µM (inactive)	> 100 µM (inactive)	> 100 µM (inactive)	> 100 µM (inactive)	> 100 µM (inactive)	> 100 µM (inactive)	> 100 µM (inactive)	> 100 µM (inactive)	> 100 µM (inactive)	> 100 µM (inactive)	> 100 µM (inactive)	> 100 µM (inactive)	> 100 µM (inactive)	> 100 µM (inactive)	–	–
O=S(=O)(Sc1ccc(Cl)cc1)c1ccc(Cl)cc1	21.4 µM (inactive)	17.6 µM (inactive)	15.3 µM (inactive)	17.6 µM (inactive)	10.3 µM (inactive)	15.9 µM (inactive)	14.9 µM (inactive)	15.2 µM (inactive)	19.9 µM (inactive)	15.6 µM (inactive)	4.23 µM (inactive)	16.6 µM (inactive)	7.16 µM (inactive)	12.2 µM (inactive)	44.7 µM (inactive)	11.2 µM (inactive)	10.5 µM (inactive)	3.84 µM (inactive)	–	–
N#Cc1nc(C(=O)c2ccccc2)oc1N	> 100 µM (inactive)	> 100 µM (inactive)	> 100 µM (inactive)	–	> 100 µM (inactive)	> 100 µM (inactive)	> 100 µM (inactive)	> 100 µM (inactive)	> 100 µM (inactive)	65.5 µM (inactive)	> 100 µM (inactive)	> 100 µM (inactive)	> 100 µM (inactive)	> 100 µM (inactive)	> 100 µM (inactive)	–	–	> 100 µM (inactive)	> 100 µM (inactive)	20.9 µM (inactive)
